# Measurements from paper PMC9154192 (PLoS Biology, 2022).
# Several values for one entry are separate records, joined by “and”; a condition that tells them apart may be missing. Equal values may be shown once. Read-outs that look alike come from different tables or passages of the source.
# How the values were obtained:
# [1] = type: cell-based; settings: positive control
# [2] = test system: Murine Raw 264.7 macrophages; test: in vitro; type: cell-based; settings: RAW, MTT assay (Table S1)
# Protocol: (§1) A549 human pulmonary epithelial cells (KCLB 10185), human embryonic kidney (HEK) 293 cells (KCLB 21573), human THP-1 leukemia cells (KCLB 40202), human neuroblastoma SH-SY5Y cells (KCLB 22266), Murine Raw 264.7 macrophages (KCLB 40071), and L929 murine fibroblasts (KCLB 10001) were purchased from the KCLB (Seoul, Korea). Cytotoxicity testing was performed using the MTT assay and the WST-1 cell viability assay as previously described.
# L929 murine fibroblasts = test: in vitro; type: cell-based; settings: L929, MTT assay (Table S1)
# Protocol: as §1
# M. tuberculosis H37Ra = test: microbe, parasite or virus in culture; type: cell-based, Mycobacterium tuberculosis
# M. tuberculosis H37Rv = test: microbe, parasite or virus in culture; type: cell-based, Mycobacterium tuberculosis; settings: for SI (CC50/MIC): ratio of CC50 for L929 fibroblasts to MIC for strain H37Rv
# in vitro = type: cell-based, murine; settings: mouse
# Protocol: as §1
# [3] = TA98, 1.0 μg/plate, presence of S9 mix
# [4] = TA100, 2.0 μg/plate, presence of S9 mix
# [5] = TA1535, 3.0 μg/plate, presence of S9 mix
# [6] = TA1537, 3.0 μg/plate, presence of S9 mix
# [7] = WP2uvrA (pKM101), 2.0 μg/plate, presence of S9 mix
# [8] = TA98, 5.0 μg/plate, absence of S9 mix
# [9] = TA1537, 80.0 μg/plate, absence of S9 mix
# [10] = Mycobacterium tuberculosis, H37RA
# [11] = Mycobacterium tuberculosis, H37RV, read-out: MIC
compound,measurement,setting,value
Nc1ccc2cc3ccccc3cc2c1 [2-AA],Individual revertant colony counts,[1]; [3],402 colonies per plate and 414 colonies per plate
same,Mean revertant colonies,[1]; [3],408 colonies per plate
same,Individual revertant colony counts,[1]; [4],555 colonies per plate and 578 colonies per plate
same,Mean revertant colonies,[1]; [4],567 colonies per plate
same,Individual revertant colony counts,[1]; [5],96 colonies per plate and 103 colonies per plate
same,Mean revertant colonies,[1]; [5],100 colonies per plate
same,Individual revertant colony counts,[1]; [6],193 colonies per plate and 184 colonies per plate
same,Mean revertant colonies,[1]; [6],189 colonies per plate
same,Individual revertant colony counts,[1]; [7],409 colonies per plate and 430 colonies per plate
same,Mean revertant colonies,[1]; [7],420 colonies per plate
O=[N+]([O-])c1ccc2c(c1)Cc1ccccc1-2 [2-NF],Individual revertant colony counts,[1]; [8],705 colonies per plate and 649 colonies per plate
same,Mean revertant colonies,[1]; [8],677 colonies per plate
Nc1c2ccccc2nc2ccccc12 [9-AA],Individual revertant colony counts,[1]; [9],539 colonies per plate and 571 colonies per plate
same,Mean revertant colonies,[1]; [9],555 colonies per plate
COc1ccc(/C(=C\c2ccc(OCc3ccccc3)cc2)C(=O)O)cc1OC [DPGA2],CC50,[2],>100 µg/mL
same,CC50,L929 murine fibroblasts,>100 µg/mL
same,MIC,M. tuberculosis H37Ra,100 µg/mL
same,MIC,M. tuberculosis H37Rv,>100 µg/mL
COC(=O)c1cc2ccc(O)cc2c2cc(OC)c(OC)cc12 [DPGA4],CC50,"in vitro; L929, MTT assay (Table S1)",34.9 µg/mL
same,CC50,"in vitro; RAW, MTT assay (Table S1)",37.5 µg/mL
same,MIC,M. tuberculosis H37Ra; [10],> 100 µg/mL
same,MIC,M. tuberculosis H37Rv; [11],> 100 µg/mL
same,SI (CC50/MIC),M. tuberculosis H37Rv,<0.3
COC(=O)c1cc2ccc(OCC(C)C)cc2c2cc(OC)c(OC)cc12 [DPGA5],CC50,"in vitro; L929, MTT assay (Table S1)",40.3 µg/mL
same,CC50,"in vitro; RAW, MTT assay (Table S1)",> 100 µg/mL
same,MIC,M. tuberculosis H37Ra; [10],> 100 µg/mL
same,MIC,M. tuberculosis H37Rv; [11],> 100 µg/mL
same,SI (CC50/MIC),M. tuberculosis H37Rv,<0.4
COC(=O)c1cc2ccc(OC3CCCCC3)cc2c2cc(OC)c(OC)cc12 [DPGA6],CC50,"in vitro; L929, MTT assay (Table S1)",> 100 µg/mL
same,CC50,"in vitro; RAW, MTT assay (Table S1)",> 100 µg/mL
same,MIC,M. tuberculosis H37Ra; [10],> 100 µg/mL
same,MIC,M. tuberculosis H37Rv; [11],> 100 µg/mL
CCOc1ccc2cc(C(=O)OC)c3cc(OC)c(OC)cc3c2c1 [DPGA7],CC50,"in vitro; L929, MTT assay (Table S1)",> 100 µg/mL
same,CC50,"in vitro; RAW, MTT assay (Table S1)",> 100 µg/mL
same,MIC,M. tuberculosis H37Ra; [10],> 100 µg/mL
same,MIC,M. tuberculosis H37Rv; [11],> 100 µg/mL
